Experimental data: ChEMBL document CHEMBL5257080, “Optimization of physicochemical properties of pyrrolidine GPR40 AgoPAMs results in a differentiated profile with improved pharmacokinetics and reduced off-target activities” (Bioorg Med Chem, 2023)
Active and inactive are the calls of the source. The calls are words filed in the database; no cut-off is given here.

Experiments:
[1] = Cmax in rat at 240 mg/kg qd; format: ADME, organism-based; set-up: dose 240 mg/kg; details: in vivo
[2] = Cmax in rat at 40 mg/kg bid; format: ADME, organism-based; set-up: dose 40 mg/kg; details: in vivo
[3] = Toxicity in Sprague-Dawley rat assessed as hypoglycemia at 80 mg/kg, po measured for 24 hrs by glucometer analysis; format: organism-based; details: in vivo
[4] = AUC (0 to 24 hrs) in rat at 800 mg/kg qd; format: ADME, organism-based; set-up: dose 800 mg/kg; details: in vivo
[5] = Tmax in rat at 80 mg/kg qd; format: ADME, organism-based; details: in vivo
[6] = Permeability of compound across apical to basolateral side in dog MDCK cells; format: ADME, cell-based, Canis lupus familiaris; details: read-out: permeability
[7] = Tmax in rat at 240 mg/kg qd; format: ADME, organism-based; details: in vivo
[8] = AUC (0 to 24 hrs) in rat at 80 mg/kg qd; format: ADME, organism-based; set-up: dose 80 mg/kg; details: in vivo
[9] = Tmax in rat at 800 mg/kg qd; format: ADME, organism-based; details: in vivo
[10] = AUC (0 to 24 hrs) in rat at 240 mg/kg qd; format: ADME, organism-based; set-up: dose 240 mg/kg; details: in vivo
[11] = Cmax in rat at 80 mg/kg qd; format: ADME, organism-based; set-up: dose 80 mg/kg; details: in vivo
[12] = Cmax in rat at 800 mg/kg qd; format: ADME, organism-based; set-up: dose 800 mg/kg; details: in vivo
[13] = Lipophilicity, logD of compound; format: physicochemical; details: octanol/water
[14] = target: T1, Peroxisome proliferator-activated receptor gamma (Homo sapiens, UniProt P37231); experiment: Transactivation of PPARgamma (unknown origin)
T1 sequence (P37231 whole entry): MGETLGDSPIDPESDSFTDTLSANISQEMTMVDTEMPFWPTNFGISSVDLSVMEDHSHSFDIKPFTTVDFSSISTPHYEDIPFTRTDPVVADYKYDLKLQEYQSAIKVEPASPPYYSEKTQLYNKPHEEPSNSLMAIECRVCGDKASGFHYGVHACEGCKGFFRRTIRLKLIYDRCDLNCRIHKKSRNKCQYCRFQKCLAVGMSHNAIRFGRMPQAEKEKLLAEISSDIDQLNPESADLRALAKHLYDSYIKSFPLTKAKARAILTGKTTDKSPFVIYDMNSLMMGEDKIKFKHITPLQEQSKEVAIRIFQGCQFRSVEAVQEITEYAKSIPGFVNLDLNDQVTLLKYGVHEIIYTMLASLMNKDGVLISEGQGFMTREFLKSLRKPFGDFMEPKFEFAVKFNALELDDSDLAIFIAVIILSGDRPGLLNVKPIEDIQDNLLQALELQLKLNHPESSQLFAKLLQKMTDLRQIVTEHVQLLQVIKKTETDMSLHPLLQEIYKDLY

[15] = Metabolic stability in mouse liver microsome assessed as parent compound remaining after 10 mins; format: ADME; details: liver microsomes, read-out: Stability
[16] = target: Free fatty acid receptor 1 (Mus musculus, UniProt Q76JU9); experiment: Positive allosteric modulation of mouse GPR40
Sequence of Free fatty acid receptor 1 (Mus musculus, UniProt Q76JU9) (Q76JU9 whole entry): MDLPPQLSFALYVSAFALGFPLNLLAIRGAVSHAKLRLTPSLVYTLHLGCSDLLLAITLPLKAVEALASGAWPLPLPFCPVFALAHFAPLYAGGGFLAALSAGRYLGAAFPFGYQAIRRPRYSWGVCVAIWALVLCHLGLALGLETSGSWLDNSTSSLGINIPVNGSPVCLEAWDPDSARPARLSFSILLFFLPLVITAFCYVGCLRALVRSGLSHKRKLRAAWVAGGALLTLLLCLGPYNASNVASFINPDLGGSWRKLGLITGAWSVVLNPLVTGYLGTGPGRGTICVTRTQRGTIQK

[17] = target: T2, Free fatty acid receptor 1 (Homo sapiens, UniProt O14842); experiment: Positive allosteric modulation of human GPR40 by calcium based FLIPR analysis
T2 sequence (O14842 whole entry): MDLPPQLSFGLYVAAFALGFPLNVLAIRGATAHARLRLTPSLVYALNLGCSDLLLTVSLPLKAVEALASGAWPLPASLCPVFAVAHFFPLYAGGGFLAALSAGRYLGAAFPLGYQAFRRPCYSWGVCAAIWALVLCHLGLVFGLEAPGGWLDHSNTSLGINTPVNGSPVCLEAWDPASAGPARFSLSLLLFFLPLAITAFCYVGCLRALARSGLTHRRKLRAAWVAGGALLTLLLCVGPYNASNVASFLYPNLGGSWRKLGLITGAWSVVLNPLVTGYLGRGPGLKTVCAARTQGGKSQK

Mus musculus = experiment: Anti-hyperglycemic activity against mouse assessed as reduction in plasma glucose level at 3 mg/kg, po by OGTT analysis; format: functional, organism-based
[18] = Drug concentration in mouse plasma measured after 3 hrs; format: ADME
[19] = Toxicity in rat; details: in vivo
[20] = Toxicity in rat assessed as change in spontaneous locomotor activity; details: in vivo
[21] = Toxicity in rat assessed as change in heart rate; details: in vivo
[22] = target: T2, Free fatty acid receptor 1; experiment: Positive allosteric modulation of human GPR40 expressed in HEK293 cells assessed as maximum efficacy relative to control; format: cell-based; details: filed as positive allosteric modulator
[23] = Cmax in mouse at 1 mg/kg; format: ADME, organism-based; set-up: dose 1 mg/kg; details: in vivo
[24] = AUC (0-7hrs) in mouse at 1 mg/kg; format: ADME, organism-based; set-up: dose 1 mg/kg; details: in vivo
[25] = target: T2, Free fatty acid receptor 1; experiment: Positive allosteric modulation of human GPR40 expressed in HEK293 cells; format: cell-based

SMILES: COc1ccc(F)c(-c2ccc(Cc3ccc(N4N=C(C(F)(F)F)[C@@H](C)[C@@H]4CC(=O)O)cc3)c(C)c2)c1
- Cmax [1]: 30 µM
- Cmax [2]: 30 µM
- Activity [3]: Non-Toxic
- AUC [4]: 1430 µM·h
- Tmax [5]: 4 h
- Papp A→B [6]: 5.7 ×10⁻⁶ cm/s
- Tmax [7]: 6 h
- AUC [8]: 243 µM·h
- Tmax [9]: 48 h
- AUC [10]: 1080 µM·h
- Cmax [11]: 30 µM
- Cmax [12]: 65 µM

SMILES: CCOc1ccc(F)c(N2CCC(Oc3ccc(N4C[C@H](Oc5ccccc5)C[C@@H]4CC(=O)O)cc3)CC2)c1
- logD [13]: 2.44
- EC50 [14]: > 47000 nM

SMILES: CCOc1ccc(F)c(N2CCC(Oc3ccc(N4C[C@H](Oc5cccc(OC)c5)C[C@@H]4CC(=O)O)cc3)CC2)c1
- logD [13]: 2.15
- EC50 [14]: > 47000 nM

SMILES: COc1cc(N2CC[C@@H](Oc3ccc(N4C[C@H](C(F)(F)F)[C@@H](C)[C@@H]4CC(=O)O)cc3)[C@H](C)C2)c(Cl)cn1
- EC50 [14]: > 48000 nM

SMILES: COc1cc(N2CC[C@@H](Oc3ccc(N4C[C@H](F)[C@@H](C)[C@@H]4CC(=O)O)cc3)[C@H](C)C2)c(Cl)cn1
- remaining at 10 min [15]: 97%
- EC50 [16]: 48 nM
- EC50 [17]: 29 nM
- Activity (Mus musculus): inactive
- EC50 [14]: > 48000 nM
- concentration at 3 h [18]: 0.156 µM

SMILES: CCOc1ccc(F)c(N2CCC(Oc3ccc(N4C[C@H](OCCCOC)C[C@@H]4CC(=O)O)cc3)CC2)c1
- logD [13]: 0.81
- EC50 [14]: > 47000 nM

SMILES: CCOc1ccc(F)c(N2CC[C@@H](Oc3ccc(N4C[C@H](c5ccccc5)C[C@@H]4CC(=O)O)cc3)[C@H](C)C2)c1
- EC50 [17]: 230 nM
- EC50 [14]: > 48000 nM

SMILES: COc1cc(N2CC[C@@H](Oc3ccc(N4CC[C@@H](C)[C@@H]4CC(=O)O)cc3)[C@H](C)C2)c(Cl)cn1
- EC50 [17]: 110 nM
- EC50 [14]: > 48000 nM

SMILES: CCOc1ccc(F)c(N2CC[C@@H](Oc3ccc(N4C[C@H](C(F)(F)F)C[C@@H]4CC(=O)O)cc3)[C@H](Cc3ccccc3)C2)c1
- EC50 [17]: 740 nM

SMILES: COc1ccc(F)c(-c2ccc(Cc3ccc(N4C[C@H](C(F)(F)F)C[C@@H]4CC(=O)O)cc3)c(C)c2)c1
- Activity [19]: Toxic
- Activity [3]: Non-Toxic
- Activity [20]: Non-Toxic
- Activity [21]: Non-Toxic
- Emax [22]: 97%

SMILES: COCCOCO[C@H]1CN(c2ccc(O[C@@H]3CCN(c4cc(OC)ncc4Cl)C[C@H]3C)cc2)[C@@H](CC(=O)O)[C@@H]1C
- EC50 [17]: 180 nM

SMILES: CCOc1ccc(F)c(N2CC[C@@H](Oc3ccc(N4C[C@H](OC)[C@@H](C)[C@@H]4CC(=O)O)cc3)[C@H](C)C2)c1
- Cmax [23]: 0.5 µM
- EC50 [14]: > 48000 nM
- AUC(0-t) [24]: 0.5 µM·h

SMILES: COc1ccc(F)c(N2CCC(Oc3ccc(N4CCC[C@H]4CC(=O)O)cc3)CC2)c1
- EC50 [25]: 4100 nM
- EC50 [14]: > 50000 nM

SMILES: COc1cc(N2CC[C@@H](Oc3ccc(N4C[C@H](F)[C@@H](OC)[C@@H]4CC(=O)O)cc3)[C@H](C)C2)c(Cl)cn1
- EC50 [14]: > 48000 nM

SMILES: COc1cc(N2CC[C@@H](Oc3ccc(N4C[C@H](OCCCC#N)[C@@H](C)[C@@H]4CC(=O)O)cc3)[C@H](C)C2)c(Cl)cn1
- EC50 [17]: 120 nM

SMILES: CCOc1ccc(F)c(N2CC[C@@H](Oc3ccc(N4C[C@H](OC)C[C@@H]4CC(=O)O)cc3)[C@H](C)C2)c1
- EC50 [14]: 12000 nM

SMILES: CCCCCO[C@H]1CN(c2ccc(O[C@@H]3CCN(c4cc(OC)ncc4Cl)C[C@H]3C)cc2)[C@@H](CC(=O)O)[C@@H]1C
- EC50 [17]: 190 nM

SMILES: CCOc1ccc(F)c(N2CC[C@@H](Oc3ccc(N4C[C@H](C(F)(F)F)C[C@@H]4CC(=O)O)cc3)[C@H](CC(C)C)C2)c1
- EC50 [17]: 430 nM

SMILES: CCOc1ccc(F)c(N2CC[C@@H](Oc3ccc(N4C[C@](C)(OC)C[C@@H]4CC(=O)O)cc3)[C@H](C)C2)c1
- EC50 [17]: 220 nM

SMILES: CCOc1ccc(F)c(N2CC[C@@H](Oc3ccc(N4C[C@H](C(F)(F)F)C[C@@H]4CC(=O)O)cc3)[C@H](C)C2)c1
- EC50 [14]: > 48000 nM

SMILES: CCOc1ccc(F)c(N2CC[C@@H](Oc3ccc(N4CC(C)(C)C[C@@H]4CC(=O)O)cc3)[C@H](C)C2)c1
- EC50 [14]: > 48000 nM

SMILES: CCOc1ccc(F)c(N2CC[C@@H](Oc3ccc(N4C[C@H](OCCCOC)C[C@@H]4CC(=O)O)cc3)[C@H](C)C2)c1
- logD [13]: 1.3

SMILES: CCOc1ccc(F)c(N2CC[C@@H](Oc3ccc(N4C[C@H](C(F)(F)F)C[C@@H]4CC(=O)O)cc3)[C@H](CC)C2)c1
- EC50 [17]: 430 nM

SMILES: CCOc1ccc(F)c(N2CC[C@@H](Oc3ccc(N4C[C@H](OCCCOC)[C@@H](C)[C@@H]4CC(=O)O)cc3)[C@H](C)C2)c1
- EC50 [16]: 18 nM
- logD [13]: 1.82
- EC50 [17]: 51 nM
- Cmax [23]: 1.4 µM
- EC50 [14]: > 47000 nM
- AUC(0-t) [24]: 2.9 µM·h

SMILES: COc1ccc(F)c(N2CCC(Oc3ccc(N4CCC[C@@H]4CC(=O)O)cc3)CC2)c1
- EC50 [25]: 1400 nM
- EC50 [14]: > 50000 nM
